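Five compound concentrations were applied to cells in 96-well plates for 48 hours; endpoints were derived by simple linear interpolation of the resulting dose-response curve. GI50: concentration for 50% inhibition of growth. TGI: concentration producing complete growth inhibition.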
Columns and labels:
Test in all cases: inhibition of tumour cell growth, NCI panel, 48 h
UACC-257 melanoma = test system: UACC-257 melanoma
DLD-1 colon = test system: DLD-1 colon
SK-OV-3 ovarian = test system: SK-OV-3 ovarian
HT29 colon = test system: HT29 colon
UO-31 renal = test system: UO-31 renal
HOP-92 NSCLC = test system: HOP-92 NSCLC
NCI-H226 lung = test system: NCI-H226 lung
LXFL 529 NSCLC = test system: LXFL 529 NSCLC
TK-10 renal = test system: TK-10 renal
MOLT-4 leukemia = test system: MOLT-4 leukemia

Q: With COC1CC(OS(=O)(=O)c2ccc(C)cc2)C(OC(=O)c2ccccc2)C(C)O1 (centres undefined) as the compound, how does the TGI (UACC-257 melanoma) read?
A: > 10 µM

Q: What about the GI50 (DLD-1 colon) of the same compound?
A: > 100 µM

Q: What about the TGI (DLD-1 colon) of the same compound?
A: > 100 µM

Q: And the GI50 (SK-OV-3 ovarian)?
A: > 100 µM

Q: What about the TGI (SK-OV-3 ovarian) of the same compound?
A: > 100 µM

Q: And the GI50 (HT29 colon)?
A: > 100 µM

Q: What about the TGI (HT29 colon) of the same compound?
A: > 100 µM

Q: And the GI50 (UO-31 renal)?
A: > 100 µM

Q: What about the TGI (UO-31 renal) of the same compound?
A: > 100 µM

Q: What about the GI50 (HOP-92 NSCLC) of the same compound?
A: > 10 µM

Q: What about the TGI (HOP-92 NSCLC) of the same compound?
A: > 100 µM

Q: And the GI50 (NCI-H226 lung)?
A: > 100 µM

Q: What about the TGI (NCI-H226 lung) of the same compound?
A: > 100 µM

Q: And the GI50 (LXFL 529 NSCLC)?
A: > 100 µM

Q: What about the TGI (LXFL 529 NSCLC) of the same compound?
A: > 100 µM

Q: What about the GI50 (TK-10 renal) of the same compound?
A: > 100 µM

Q: And the TGI (TK-10 renal)?
A: > 100 µM

Q: And the GI50 (MOLT-4 leukemia)?
A: > 100 µM

Q: What about the TGI (MOLT-4 leukemia) of the same compound?
A: > 100 µM

Q: With COc1cc2c(cc1OC(=O)CC(C)O)C1C(OC2=O)C(OC(C)=O)C=C2CCN(C)[C@H]21 (some centres undefined) as the compound, how does the TGI (UACC-257 melanoma) read?
A: > 100 µM

Q: And the TGI (DLD-1 colon)?
A: > 100 µM

Q: What about the TGI (SK-OV-3 ovarian) of the same compound?
A: 57.2 µM

Q: And the TGI (HT29 colon)?
A: > 100 µM

Q: What about the TGI (UO-31 renal) of the same compound?
A: > 100 µM

Q: What about the TGI (HOP-92 NSCLC) of the same compound?
A: 44.5 µM

Q: What about the TGI (NCI-H226 lung) of the same compound?
A: 65.9 µM

Q: And the TGI (LXFL 529 NSCLC)?
A: > 100 µM

Q: What about the TGI (TK-10 renal) of the same compound?
A: 65.1 µM

Q: What about the TGI (MOLT-4 leukemia) of the same compound?
A: > 100 µM

Q: For CCCCNCC(=O)O[C@]1(CC)C(=O)OCc2c1cc1n(c2=O)Cc2cc3ccccc3nc2-1, which TGI (UACC-257 melanoma) is on record?
A: 8.19 µM

Q: And the TGI (DLD-1 colon)?
A: > 100 µM

Q: And the TGI (SK-OV-3 ovarian)?
A: > 40.5 µM

Q: What about the TGI (HT29 colon) of the same compound?
A: > 100 µM

Q: What about the TGI (UO-31 renal) of the same compound?
A: 1.71 µM

Q: And the TGI (HOP-92 NSCLC)?
A: 12.3 µM

Q: And the TGI (NCI-H226 lung)?
A: 2.06 µM

Q: And the TGI (LXFL 529 NSCLC)?
A: 56.8 µM

Q: What about the TGI (TK-10 renal) of the same compound?
A: > 96.5 µM

Q: And the TGI (MOLT-4 leukemia)?
A: 0.232 µM

Q: What does the source list for O=C1C=C(Br)c2c(-c3ccccc3)oc3cccc1c23?
A: TGI (UACC-257 melanoma): > 100 µM; TGI (DLD-1 colon): > 100 µM; TGI (SK-OV-3 ovarian): > 100 µM; TGI (HT29 colon): > 100 µM; TGI (UO-31 renal): > 100 µM; TGI (HOP-92 NSCLC): > 100 µM; TGI (NCI-H226 lung): > 100 µM; TGI (LXFL 529 NSCLC): > 100 µM; TGI (TK-10 renal): 82.1 µM; TGI (MOLT-4 leukemia): > 67.8 µM

Q: How did the TGI (UACC-257 melanoma) turn out when CCOC(=O)C1Oc2ccc([N+](=O)[O-])c3c2C1(O)CCC3 (centres undefined) was run?
A: > 100 µM

Q: And the TGI (DLD-1 colon)?
A: > 100 µM

Q: What about the TGI (SK-OV-3 ovarian) of the same compound?
A: > 100 µM

Q: And the TGI (HT29 colon)?
A: > 100 µM

Q: And the TGI (UO-31 renal)?
A: > 100 µM

Q: And the TGI (HOP-92 NSCLC)?
A: > 100 µM

Q: And the TGI (NCI-H226 lung)?
A: > 100 µM

Q: And the TGI (LXFL 529 NSCLC)?
A: > 100 µM

Q: And the TGI (TK-10 renal)?
A: > 100 µM

Q: And the TGI (MOLT-4 leukemia)?
A: > 100 µM

Q: With O=S(=O)(c1ccccc1)C(CN1CCCCC1)S(=O)(=O)c1ccccc1 as the compound, how does the TGI (UACC-257 melanoma) read?
A: > 100 µM

Q: And the TGI (DLD-1 colon)?
A: > 100 µM

Q: And the TGI (SK-OV-3 ovarian)?
A: > 100 µM

Q: What about the TGI (HT29 colon) of the same compound?
A: > 100 µM

Q: What about the TGI (UO-31 renal) of the same compound?
A: > 100 µM

Q: What about the TGI (HOP-92 NSCLC) of the same compound?
A: > 100 µM

Q: What about the TGI (NCI-H226 lung) of the same compound?
A: > 100 µM

Q: And the TGI (LXFL 529 NSCLC)?
A: > 100 µM

Q: What about the TGI (TK-10 renal) of the same compound?
A: > 100 µM

Q: And the TGI (MOLT-4 leukemia)?
A: > 100 µM

Q: What does the source list for Nn1c(-c2ccccc2Cl)nc2ccccc2c1=O?
A: TGI (UACC-257 melanoma): > 100 µM; TGI (DLD-1 colon): > 100 µM; TGI (SK-OV-3 ovarian): > 100 µM; TGI (HT29 colon): > 100 µM; TGI (UO-31 renal): > 100 µM; TGI (HOP-92 NSCLC): > 100 µM; TGI (NCI-H226 lung): > 100 µM; TGI (LXFL 529 NSCLC): > 100 µM; TGI (TK-10 renal): > 100 µM; TGI (MOLT-4 leukemia): > 100 µM

Q: What does the source list for N#CC(C(=O)CCC(=O)Nc1cccc(Cl)c1)c1ccccc1 (centres undefined)?
A: TGI (UACC-257 melanoma): > 100 µM; TGI (DLD-1 colon): > 100 µM; TGI (SK-OV-3 ovarian): > 100 µM; TGI (HT29 colon): > 100 µM; TGI (UO-31 renal): > 100 µM; TGI (HOP-92 NSCLC): > 100 µM; TGI (NCI-H226 lung): > 100 µM; TGI (LXFL 529 NSCLC): > 100 µM; TGI (TK-10 renal): > 100 µM; TGI (MOLT-4 leukemia): > 100 µM

Source: PubChem BioAssay (NCI)
